Tests used:
H1703 tumor cell line = assay: ATP release from squamous NSCLC H1703 tumor cells after chemotherapy (CellTiter-Glo); type: cell-based; conditions: culture supernatant, FIG. 2
Procedure: This experiment aimed as studying ATP release from squamous NSCLC tumor cells following chemotherapy treatment. The squamous NSCLC H1703 tumor cell line was incubated separately with different chemotherapies. The measurement of ATP release was performed 24 h after Cisplatin treatment, 72 h after Carboplatin, 60 h after Oxaliplatin, 48 h after Pemetrexed, 48 h after Gemcitabine, 72 h after 5-FU, 24 h after Paclitaxel and 40 h after Docetaxel. Extracellular ATP release in the culture supernatant was measured with a luminescent-based assay (CellTiter-Glo®) and expressed in Luminescence Arbitrary Unit (AU). Means+/−SD.
Result are shown in FIG. 2, showing ATP release from H1703 tumor cell line (sqNSCLC) following the treatment with different chemotherapies, cisplatin, carboplatin, oxaliplatin, pemetrexed, gemcitabine, 5-Fu, paclitaxel and docetaxel.

[1] = molecular target: T1, recombinant human CD39 protein (huCD39) (Homo sapiens, UniProt P49961); assay: eATP release by H1703 (CD39-) cells incubated with recombinant huCD39, with or without IPH5201, then docetaxel; type: cell-based; conditions: H1703 (CD39-) cells; docetaxel 0.1 μM; 40 h; FIG. 3A
T1 sequence (P49961 38-478 limits assumed): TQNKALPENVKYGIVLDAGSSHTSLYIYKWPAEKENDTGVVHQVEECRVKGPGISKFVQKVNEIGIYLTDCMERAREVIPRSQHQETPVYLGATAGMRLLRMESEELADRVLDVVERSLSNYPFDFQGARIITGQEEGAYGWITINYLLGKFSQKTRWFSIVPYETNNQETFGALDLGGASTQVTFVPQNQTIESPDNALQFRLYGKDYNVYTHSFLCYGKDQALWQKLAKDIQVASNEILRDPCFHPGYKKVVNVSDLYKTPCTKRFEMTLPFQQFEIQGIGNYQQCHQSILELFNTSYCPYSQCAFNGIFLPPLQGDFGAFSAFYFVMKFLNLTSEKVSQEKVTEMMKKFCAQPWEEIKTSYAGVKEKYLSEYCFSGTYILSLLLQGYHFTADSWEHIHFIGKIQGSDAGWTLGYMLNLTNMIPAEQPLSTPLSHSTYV
Procedure: H1703 (CD39−) cells were incubated with recombinant human CD39 protein (huCD39) (400 ng/ml) to mimic soluble CD39 in tumor microenvironment with or without IPH5201 (humanized anti-CD39 antibody having the respective heavy and light chain amino acid sequences of SEQ ID NOS: 10 and 11) at 10 μg/mL and then treated with docetaxel (0.1 μM). The measure of extracellular ATP (eATP) release was performed 40 h after docetaxel treatment.
(§1) OAW42 (CD39+) cells were incubated with 10 or 50 μg/mL of IPH5201 and treated with a dose range of docetaxel. The measure of eATP release was performed 30 h after docetaxel treatment. eATP was measured in the cell culture supernatant with a luminescent-based assay (CellTiter-Glo®) and expressed in Luminescence Arbitrary Unit (AU). Means+/−SD.

OAW42 (CD39+) cells = assay: eATP release in OAW42 (CD39+) cells with IPH5201 and docetaxel; type: cell-based; conditions: docetaxel dose range, 30 h, FIG. 3B
Procedure: as §1

MC38 cancer cell line = assay: MC38 tumor growth in huCD39KI mice (gemcitabine +/- anti-PD-L1 +/- molPH5201); type: in vivo, human CD39 knock-in (huCD39KI) mice; conditions: for tumor growth compared to the control: p<0.001
Procedure: In vivo experiments were performed in human CD39 knock-in (huCD39KI) mice, genetically modified to express human CD39 in place of its murine counterpart mouse CD39. These mice were sub-cutaneously (s.c.) engrafted with the MC38 cancer cell line. Mice bearing established tumors were dosed with isotype control (IC) antibodies, anti-human CD39 antibody (molPH5201, described above), gemcitabine chemotherapy and anti-mouse PD-L1 antibody (an antibody that binds murine PD-L1 having an Fc domain with amino acid substitutions to eliminate binding to mouse Fcγ receptors.
Male and female huCD39KI mice were engrafted subcutaneously (s.c.) with 1×10^6 MC38 cancer cells. Treatments were initiated after mouse randomization. Mice were treated twice a week for two weeks with gemcitabine (25 mg/kg) or PBS (at day 8, 11, 15 and 18 after cell engraftment) and once a week for four weeks with either anti-human CD39 antibody (molPH5201) or the corresponding isotype control (IC) antibody (400 μg/mouse).
Randomization of mice into four groups was performed on day 7 post tumor cell engraftment, at a mean tumor volume of 72 mm^3±27 mm^3 with individual tumor volumes comprised between 37 and 130 mm^3.
(§2) Male and female huCD39KI mice were engrafted s.c. with 1×10^6 MC38. Treatments were initiated after mouse randomization. Mice were treated twice a week for two weeks with gemcitabine (25 mg/kg) or PBS, twice a week for three weeks with either anti-mouse PD-L1 antibody or the corresponding IC antibody (200 μg/mouse) and once a week for four or five weeks depending on the experiment with either anti-human CD39 antibody (molPH5201) or the corresponding IC antibody (400 μg/mouse). Mouse randomization into five groups was performed on day 7 post tumor cell engraftment at a mean tumor volume of 62 mm^3±23 mm^3 with individual tumor volumes comprised between 31 and 117 mm^3.
as §2, with “As in Experiment 1, male” for “Male”, “64” for “62”, “115” for “117”
as §2, with “As in Experiments 1 and 2, male” for “Male”, “engraftment,” for “engraftment”, “74 mm^3±21” for “62 mm^3±23”, “40” for “31”, “121” for “117”
The three experiments were pooled and results are shown in FIG. 9, showing Tumor growth of MC38 tumor in huCD39KI mice post treatment with gemcitabine+/−anti-PD-L1+/−molPH5201. MC38 tumor-bearing huCD39KI mice were randomized on day 7 and then treated as indicated with 25 mg/kg ip of gemcitabine or PBS, 200 μg ip of anti-mouse PD-L1 antibody or corresponding isotype control antibody and with 400 μg iv of molPH5201 or corresponding IC antibody. Graphs show tumor growth in each individual (n=31/group). CR: Complete Response.

[2] = Phase 1 study of IPH5201 +/- durvalumab in advanced solid tumours: safety; type: in vivo; conditions: of 19 patients given IPH5201+durvalumab (1500 mg Q3W)
Procedure: A first-in-human, multicentre, non-randomised, open-label, phase 1 study was conducted in order to assess the safety, efficacy, pharmacokinetics (PK) and pharmacodynamics (PD) of IPH5201±durvalumab (Imfinzi™) in patients with advanced solid tumours. The study consisted of two consecutive dose-escalation parts: • Part 1: Ascending doses of IPH5201 (100, 300, 1000 and 3000 mg) every 3 weeks (Q3W). • Part 2: Ascending doses of IPH5201 (300, 1000 and 3000 mg) and 1500 mg durvalumab Q3W.
PD cohorts enrolled patients with advanced squamous cell lung carcinoma or advanced pancreatic ductal adenocarcinoma in the top two dose levels of Parts 1 and 2. Primary endpoints were safety and tolerability. Key secondary endpoints included preliminary antitumour activity measured by objective response and disease control per RECIST v1.1, PK and immunogenicity. Exploratory endpoints included efficacy measured by duration of response and progression-free survival (PFS) per RECIST v1.1, overall survival and assessment of biomarkers.
Key inclusion criteria were: • Adults aged ≥18 years. • Histologically or cytologically confirmed advanced solid tumours. • At least one measurable lesion per RECIST v1.1. • Refractoriness to standard therapy or disease for which no standard therapy exists. • Eastern Cooperative Oncology Group Performance Status of 0 or 1. • Archival or fresh tumour sample. • Key exclusion criteria were: • Previous treatment with any agents targeting CD73, CD39, or adenosine receptors. • Treatment with any conventional or investigational anticancer therapy within 21 days of the first planned dose. • Active or prior autoimmune or inflammatory disorders within the past 5 years. • Cardiac and vascular criteria including presence of acute coronary syndrome or thromboembolic events within 6 months prior to enrolment, congestive heart failure, serious cardiac arrhythmia requiring medication, or uncontrolled hypertension. • Untreated metastases to the central nervous system.
Overall, 57 patients received treatment (IPH5201, n=38; IPH5201+durvalumab, n=19). […] Treatment-emergent adverse events (TEAEs) occurred in 96.5% of patients; 40.4% had grade ≥3 TEAEs. […] Treatment-related adverse events (TRAEs) occurred in 66.7% of patients (37/57 (64.9%) related to IPH5201; 11/19 (57.9%) related to durvalumab). […] The most common TRAEs were infusion-related reactions (21.1%), fatigue (17.5%), nausea, arthralgia, tumour pain and pruritus (8.8% each). […] Maximum tolerated dose (MTD) was not reached.

## O=c1[nH]cc(F)c(=O)[nH]1 [5-Fu, 5-FU]
H1703 tumor cell line; 72 h after 5-FU
  ATP release: induced significant ATP release

## N.N.O=C([O-])C1(C(=O)[O-])CCC1.[Pt+2] [carboplatin]
H1703 tumor cell line; 72 h after Carboplatin
  ATP release: induced significant ATP release

## N.N.[Cl][Pt][Cl] [cisplatin]
H1703 tumor cell line; 24 h after Cisplatin treatment
  ATP release: induced significant ATP release

## CC(=O)O[C@@]12CO[C@@H]1C[C@H](O)[C@@]1(C)C(=O)[C@H](O)C3=C(C)[C@@H](OC(=O)[C@H](O)[C@@H](NC(=O)OC(C)(C)C)c4ccccc4)C[C@@](O)([C@@H](OC(=O)c4ccccc4)[C@H]21)C3(C)C [docetaxel, reference compound]
H1703 tumor cell line; 40 h after Docetaxel
  ATP release: induced significant ATP release
[1]
  extracellular ATP (eATP) release: induced strong release of eATP
OAW42 (CD39+) cells
  eATP release: at best a modest release of eATP

## Nc1ccn([C@@H]2O[C@H](CO)[C@@H](O)C2(F)F)c(=O)n1 [gemcitabine, reference compound]
H1703 tumor cell line; 48 h after Gemcitabine
  ATP release: induced significant ATP release
MC38 cancer cell line; Experiment 1 (FIG. 6)
  tumor growth compared to the control: significantly slowed down tumor growth
MC38 cancer cell line; Experiment 2 (FIG. 7)
  tumor growth compared to the control: significantly slowed down tumor growth
MC38 cancer cell line; Experiment 3 (FIG. 8)
  tumor growth compared to the control: significantly inhibited tumor growth
MC38 cancer cell line; gemcitabine +/- molPH5201 experiment (FIG. 5), gemcitabine 25 mg/kg, molPH5201 400 μg/mouse, p<0.001 where significant
  tumor growth compared to the control group: drastically and significantly slowed down tumor growth

## O=C1[O][Pt]2([NH][C@@H]3CCCC[C@H]3[NH]2)[O]C1=O [oxaliplatin]
H1703 tumor cell line; 60 h after Oxaliplatin
  ATP release: induced significant ATP release

## CC(=O)O[C@H]1C(=O)[C@@]2(C)[C@H]([C@H](OC(=O)c3ccccc3)[C@]3(O)C[C@H](OC(=O)[C@H](O)[C@@H](NC(=O)c4ccccc4)c4ccccc4)C(C)=C1C3(C)C)[C@]1(OC(C)=O)CO[C@@H]1C[C@@H]2O [paclitaxel]
H1703 tumor cell line; 24 h after Paclitaxel
  ATP release: induced significant ATP release

## Nc1nc2[nH]cc(CCc3ccc(C(=O)N[C@@H](CCC(=O)O)C(=O)O)cc3)c2c(=O)[nH]1 [pemetrexed]
H1703 tumor cell line; 48 h after Pemetrexed
  ATP release: induced significant ATP release

## durvalumab [reference compound]
[2]
  patients with TRAEs related to durvalumab: 57.9%
  patients with TRAEs related to durvalumab, count: 11/19
